Measured values published in ChEMBL document CHEMBL3507680, “University of Dundee, Gates Library screen for HepG2 cell viability”.

Assay: Human HepG2 cell viability assay in 384 well format
Assay type: toxicity, cell-based
Set-up: dose 125 nL, time 70.5 hour; cytotoxicity at 70.5 h: concentration not given beside the values
Conditions: HepG2 cells, read-out: Inhibition

Row | SMILES | cytotoxicity at 70.5 h [%]
1 | CCOCC(O)CN1CCN(C(=O)CC(C)(C)C)CC1 (stereo not given) | -18.5
2 | O=C(c1ccc(N2CCCC2)nc1)N1CCCC(n2cncn2)C1 (stereo not given) | -9
3 | Cc1nc(N2CCN(C(=O)c3ccco3)CC2)c2c(n1)c(C)nn2C | -6.71
4 | CN1CCO[C@H]2CN(S(=O)(=O)c3ccc(C#N)cc3)C[C@H]21 | 3.3
5 | Cn1cnnc1C1CCN(C(=O)c2cc3c(s2)CCC3)CC1 | -9.61
6 | O=C1NCCCCC1NC(=O)C1(c2ccc3c(c2)OCCO3)CCCC1 (stereo not given) | 27.7
7 | CN1CCOC(C)(C(=O)N2CCSCC2)C1 (stereo not given) | -4.76
8 | CCNc1cc2c(nn1)CCN(C(=O)c1cccc3c1OCO3)C2 | 3.22
9 | Cn1cc(NC(=O)CNC(=O)N2CCN(c3cccc(Cl)c3)CC2)cn1 | -4.74
10 | O=C(COCCOc1ccccc1)NC1CCN(C(=O)C2CC2)CC1 | 14.4
11 | c1ccc2c(c1)ccn2CCCNC1CCOC2(CCOCC2)C1 (stereo not given) | 32.9
12 | O=C(NCC1(O)COCCN(Cc2cccc(O)c2)C1)c1cscn1 (stereo not given) | -7.81
13 | Cc1ccoc1-c1nnc(CN2CCOC(Cn3cccn3)C2)o1 (stereo not given) | -2.97
14 | CC(=O)N[C@H]1C[C@@H](c2nc(-c3ccc4c(c3)OCO4)no2)N(C)C1 | 2.89
15 | Cc1ccc(CN2CCc3ncnc(-c4cccnc4)c3CC2)o1 | -5.88
16 | O=C(CN1CCCC1)N1CCCC1c1nc(O)cc(-c2ccccn2)n1 (stereo not given) | 11.1
17 | O=C(NCc1ccccn1)NC1CCOc2ccccc21 (stereo not given) | 20.6
18 | CCc1ncc(CN2CCN(c3cc(NC4CC4)nc(N)n3)CC2)cn1 | -15
19 | Cc1nc2c(c(NC3CCN(Cc4ccccc4)CC3)n1)CCNCC2 | 0.337
20 | Cc1cc(NC(=O)c2ccc(F)cc2Cl)n(C)n1 | 6.57
21 | Cc1nc(CN2CCCC(N(C)Cc3nc(C)c(C)o3)C2)no1 (stereo not given) | -2.87
22 | O=C(NCc1ccccc1Cn1ccnc1)N1CCOCC1 | -9.82
23 | CN1CCN(C(=O)c2cnn(-c3ccccc3Cl)c2)CC1 | -8.29

Row | SMILES | cytotoxicity at 70.5 h [%]
24 | O=C(C1CC1)N1CCC2(COCc3cnc(NCc4ccco4)nc32)C1 (stereo not given) | -2.45
25 | N#Cc1ccc(C(=O)N(C2CC2)C2CC(=O)NC2=O)cc1 (stereo not given) | -8.96
26 | Cc1nc(CN2CCCC(NCCOc3cccc(C#N)c3)C2)no1 (stereo not given) | -2.71
27 | CCC(O)CN1CCN(C(=O)Cc2ccc(OC)cc2OC)CC1 (stereo not given) | 0.587
28 | O=C(CN1CCC(c2nnc(C(F)(F)F)o2)CC1)NCc1ccccc1 | -0.907
29 | CSCc1cccc(S(=O)(=O)NCc2cnn(C)c2C)c1 | -2.3
30 | CCC[C@H]1CN(CCS(C)(=O)=O)C[C@@H]1NC(=O)c1cc(CC)on1 | -2.15
31 | O=C(CC1CCCO1)NCc1ccc(Br)cc1F (stereo not given) | -5.9
32 | CN(C)CC1CN(Cc2ccc(F)cc2)Cc2nccn2C1 (stereo not given) | -4.49
33 | CC(C)(C(N)=O)N1CCN(C(=O)c2ccn(-c3cccc(Cl)c3)n2)CC1 | -0.38
34 | CC(C)S(=O)(=O)NCC1CCCN(C(=O)c2ccc(Cl)cc2)C1 (stereo not given) | 6.86
35 | CC(C)CN1CC[C@H](c2nnc(COc3ccc(F)cc3)o2)C1 | -3.77
36 | COCCN1CCN(Cc2coc(-c3ccccc3Cl)n2)CC1 | -10.2
37 | C[C@@H]1CN(C2CCOCC2)C[C@]12CCN(c1cccnc1)C2=O | -5.4
38 | OC(CNCCn1cccn1)c1ccc(F)c(F)c1 (stereo not given) | 0.389
39 | CC(=O)Nc1ccc(-n2cncn2)c(F)c1 | -2.56
40 | CCn1ccc(NC(=O)CCn2nc(C)c3ccccc32)n1 | -10.3
41 | Cn1cc(NC(=O)NCc2ccsc2)ccc1=O | -2.03
42 | O=C(c1cnn(-c2ccccc2F)c1)N1CCN(CCO)CC1 | -3.38
43 | Cc1n[nH]c(CCC(=O)N2CCOC(Cc3ccccc3)C2)c1C (stereo not given) | -7.3
44 | Fc1cccc(N2CCCC3(CN(Cc4ccco4)CCO3)C2)c1 (stereo not given) | -11.7
45 | COc1ccc2nc(C3CC3)cc(C(=O)NCC(=O)N(C)C)c2c1 | -2.45
46 | COc1cc(CNc2ccc(C)c(Cl)c2)ccc1OCC(N)=O | -11.9

Row | SMILES | cytotoxicity at 70.5 h [%]
47 | C1CN(CC2CC2)C(COCC2CC2)c2nnn(CC3CC3)c21 (stereo not given) | -12.9
48 | O=C(c1ccco1)N1CCCC2(C1)CN(c1nncs1)CCO2 (stereo not given) | -5.17
49 | O=C(CCNC(=O)c1ccccc1F)NCCNc1cccnc1 | 1.94
50 | O=C(O)C1(Cc2ccccc2Cl)CCN(c2ncccc2F)CC1 | -6.72
51 | Cc1cc(OCC(N)=O)ccc1NC(=O)C(C)Cc1ccccc1F (stereo not given) | -2.1
52 | O=C(CCc1nc(C2CC2)no1)c1ccc(F)c(F)c1 | -17.2
53 | Cc1cccc(CN2C(=O)CCC23CCN(C(=O)NC(C)C)CC3)n1 | -2.54
54 | COc1ccccc1OC(C)CNC(=O)c1cnc[nH]1 (stereo not given) | -21.2
55 | COc1ncccc1C(=O)N1CCC(c2nnc(C3CC3)o2)CC1 | 4.57
56 | CCN(CC)S(=O)(=O)CC(=O)N1CCc2ccc(Cl)cc21 | -1.78
57 | COCCc1noc(-c2ccc(=O)[nH]c2)n1 | 2.52
58 | CCN(C)CCNC(=O)Cc1nc(-c2ccco2)oc1C | -13.2
59 | N#Cc1ccccc1CN1C[C@@H]2CC[C@H](C1)N(CC1CCC1)C2=O | -4.58
60 | CCN(CC)S(=O)(=O)c1csc(C(=O)N2CCC(C(N)=O)CC2)c1 | -2.86
61 | COc1ccc(CNCc2ccnc(N3CCOCC3)c2)c(OC)c1 | -10.2
62 | NCCn1nc(C2CCN(C(=O)Cc3ccccc3)C2)c2nccnc21 (stereo not given) | -5.36
63 | COCCN1CCC2(CCCN(c3ncccn3)C2)C1 (stereo not given) | -12.6
64 | Cc1ccccc1N1CC2(CCN(S(=O)(=O)c3ccccc3)C2)CC1=O (stereo not given) | -7.42
65 | Cc1ccc(CN(C)C(=O)CN2CCCC2c2cnn(C)c2)cc1 (stereo not given) | -6.75
66 | O=C(NCCN1CCCCCC1)c1cccc(Cl)c1Cl | 1.51
67 | c1ccn2c(C3CCCN3Cc3nc(C4CC4)no3)nnc2c1 (stereo not given) | -21.8
68 | CNC(=O)c1cc2c(nc1NCC1CC1)CCNCC2 | 4.29
69 | CC(C)NC(=O)N1CCC[C@H]1C(=O)NCCCc1cccc(F)c1 | -5.95

Row | SMILES | cytotoxicity at 70.5 h [%]
70 | Cc1cc(C)cc(C2(C(=O)NCC(C)CN3CCCC3=O)CC2)c1 (stereo not given) | -8.76
71 | CSCC(=O)N1CCc2c(cnc(C)c2-c2noc(-c3cscn3)n2)C1 | -15.6
72 | Cc1cccc(CNC2CCCc3c2cnn3Cc2ccccc2)c1 (stereo not given) | -7.85
73 | COCc1nc(C(=O)NS(=O)(=O)c2ccc(Cl)cc2F)cs1 | -3.46
74 | Cc1nc(-c2ccc(F)cc2)nc2c1CCN(C(=O)CN(C)C)CC2 | -1.65
75 | Cc1nc(N2CCN(C(=O)C3CCCC3)CC2)c2c(n1)c(C)nn2C | -0.908
76 | CN(C)CCN1C(=O)CCC12CCCN(C(=O)c1cccnc1)CC2 (stereo not given) | -5.29
77 | Cc1cnn(C2CCCN(C(=O)c3cc(-c4cccs4)n[nH]3)C2)c1 (stereo not given) | -4.05
78 | CCNC(=O)c1cn(C(C)(C)C)c2ncccc12 | -0.924
79 | CS(=O)(=O)NC(=O)c1cc(Cl)c2c(c1)OCCCO2 | 0.437
80 | Cc1ccc2c(c1)OC1(NC2=O)C(=O)N(C)c2ccccc21 (stereo not given) | 16.7
81 | Cc1cnc(N2CCCn3c(nnc3Cn3cccn3)C2)nc1 | 10.6
82 | Cc1ccc(CN2CCn3c(C(=O)N(C)C)cnc3C2)s1 | -20.4
83 | CC(=O)C1(c2ccccc2)CCN(C(=O)c2ccc3nnnn3c2)CC1 | 2.77
84 | CCOCC(=O)N1Cc2[nH]nc(COCC3CC3)c2C1 | 0.817
85 | Cc1cc(C)n(-c2ccc(N3CCC(O)CC3)nc2)n1 | -1.96
86 | O=C1CCC2(CCN(c3cccc(C(F)(F)F)n3)CC2)CN1CCO | -5.14
87 | COc1cc(CN2CCCC(Nc3cccc(F)c3)C2)cc(OC)c1O (stereo not given) | -5.97
88 | O=C(c1ccc(-c2ccccc2)[nH]c1=O)N1CCCn2ncnc21 | -9.78
89 | COc1cccc(CNC(=O)N2CCCC(Cn3cc(CN)nn3)C2)c1 (stereo not given) | -5.66
90 | CCn1c(C2CCCN(Cc3ccc(F)cc3Cl)C2)nn(C)c1=O (stereo not given) | 6.43
91 | CC1C(=O)Nc2cccnc2N1S(=O)(=O)c1ccc(C#N)c(Cl)c1 (stereo not given) | -6.2
92 | Cc1cccc(NC(=O)N2Cc3c(CN(C)C)nn(C)c3C2)c1 | -3.74

Row | SMILES | cytotoxicity at 70.5 h [%]
93 | Cc1csc(C(Cc2ccsc2)NC(=O)CN(C)Cc2cccnc2)n1 (stereo not given) | -0.677
94 | Cc1nn(C)c(C)c1NC(=O)CCn1ncc2ccccc21 | 9.95
95 | CCN1CCCC1CNC(=O)CCSc1ccc2c(c1)OCCO2 (stereo not given) | 2.47
96 | CC(C)n1ccnc1C1CCN(C(=O)c2ccccc2N(C)C)CC1 | -2.41
97 | Cc1nc(NC(=O)c2cccnc2N2CCOCC2)sc1C | -13.9
98 | CCOCC1CN(c2ccc(C)nn2)Cc2nn(CC)cc21 (stereo not given) | -7
99 | Cc1cc(OC(F)F)c(C(=O)N2CCN(C3CC3)CC2)s1 | -8.34
100 | COCCn1ccc2c(C(=O)O)cccc21 | -3.92
101 | c1cc(-c2nnn3c2COC(CNCc2nccs2)C3)ccn1 (stereo not given) | -0.24
102 | CC(C)C(Sc1nnnn1-c1ccccc1)C(=O)NCc1cccnc1 (stereo not given) | -2.05
103 | CC(C)(C)Oc1ccncc1NCc1cscn1 | -3.05
104 | COc1cccc(CN2CCC3(CC2)CCN(c2ncccn2)C3)c1 | 2.21
105 | CN(Cc1c[nH]nc1-c1ccc(F)cc1F)Cc1nccn1C | 21.7
106 | COc1c(C2CCCN2C(=O)c2ccc3[nH]cnc3c2)c(C)nn1C (stereo not given) | -0.572
107 | CCN(Cc1nc(C)no1)C(=O)C1CC(=O)N(Cc2cccnc2)C1 (stereo not given) | 17.6
108 | CN1CCOC(C(=O)Nc2ccc3c(c2)nc(C2CC2)n3C)C1 (stereo not given) | -3.17
109 | CCOC(=O)NCCC(=O)NCc1ccc(Oc2cccc(F)c2)nc1 | -3.11
110 | Cc1cc(NC(=O)NCCc2ccccc2)n(C)n1 | -7.09
111 | CCc1nc(N2CCC3(CC2)[C@H](O)C[C@@H]3O)ncc1C | -5.93
112 | CC(C)Cn1ccc2c(NC(=O)c3n[nH]c4c3CCC4)cccc21 | 5.24
113 | O=C(Cn1ncc2c(c1=O)CCCCC2)Nc1cccc2[nH]ccc12 | 3.91
114 | Cc1cc(CN2CCCCC2Cn2cncn2)no1 (stereo not given) | -12.8
115 | CCCc1cc(NCCn2cccn2)n2nccc2n1 | 1.84
